Assay results from ChEMBL document CHEMBL1201862, “PubChem BioAssay data set” (2004).
Active and inactive are the calls of the source.

Legend:
[1] = molecular target: T1, DNA repair and recombination protein RAD54-like (Homo sapiens, UniProt Q92698); assay: inhibitors of human RAD54 branch migration, confirmation, biochemical, fluorescence, cherry-picked samples, dose series (AID 651657); format: functional
T1 sequence (Q92698 whole entry): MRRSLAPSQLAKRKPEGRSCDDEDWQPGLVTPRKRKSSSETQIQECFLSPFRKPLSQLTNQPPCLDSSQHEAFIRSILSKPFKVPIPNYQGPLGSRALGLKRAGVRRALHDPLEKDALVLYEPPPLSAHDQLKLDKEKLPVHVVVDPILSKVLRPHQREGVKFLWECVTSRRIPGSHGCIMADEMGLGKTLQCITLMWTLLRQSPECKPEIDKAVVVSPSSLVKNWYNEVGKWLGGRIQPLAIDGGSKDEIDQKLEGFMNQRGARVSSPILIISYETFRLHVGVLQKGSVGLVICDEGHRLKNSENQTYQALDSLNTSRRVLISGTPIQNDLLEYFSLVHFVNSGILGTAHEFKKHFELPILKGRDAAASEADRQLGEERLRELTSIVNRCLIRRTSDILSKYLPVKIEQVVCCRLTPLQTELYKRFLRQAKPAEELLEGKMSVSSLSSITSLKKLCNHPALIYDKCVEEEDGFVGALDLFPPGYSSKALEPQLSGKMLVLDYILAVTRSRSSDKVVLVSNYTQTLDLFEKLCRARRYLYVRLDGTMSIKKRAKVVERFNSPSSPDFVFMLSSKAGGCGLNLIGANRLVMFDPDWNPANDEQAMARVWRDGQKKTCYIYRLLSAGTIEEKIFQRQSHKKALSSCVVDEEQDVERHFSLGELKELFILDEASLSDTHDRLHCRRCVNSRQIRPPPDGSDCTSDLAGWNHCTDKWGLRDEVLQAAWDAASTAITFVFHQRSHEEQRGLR

[2] = molecular target: T2, DNA repair protein RAD52 homolog (Homo sapiens, UniProt P43351); format: functional, biochemical
T2 sequence (P43351 whole entry): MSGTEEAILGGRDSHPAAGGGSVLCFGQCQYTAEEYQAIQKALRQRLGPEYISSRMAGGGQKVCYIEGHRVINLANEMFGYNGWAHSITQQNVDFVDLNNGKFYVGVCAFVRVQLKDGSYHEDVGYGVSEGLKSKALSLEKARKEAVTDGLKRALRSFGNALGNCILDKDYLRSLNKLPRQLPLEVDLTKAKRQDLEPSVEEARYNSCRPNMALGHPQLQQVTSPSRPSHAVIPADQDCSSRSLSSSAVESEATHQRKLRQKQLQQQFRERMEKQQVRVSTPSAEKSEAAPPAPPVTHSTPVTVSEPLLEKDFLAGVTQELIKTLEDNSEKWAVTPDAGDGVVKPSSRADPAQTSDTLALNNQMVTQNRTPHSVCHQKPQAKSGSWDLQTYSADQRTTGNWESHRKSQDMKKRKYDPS

Beta-galactosidase = Beta-galactosidase (Escherichia coli, UniProt Q8VNN2); assay: PubChem AID 485352; format: functional
[3] = molecular target: T3, Type-1 angiotensin II receptor (Homo sapiens, UniProt P30556); assay: AT1 receptor antagonists, dose response, selectivity assay for APJ receptor antagonist project, cell-based, uHTS hits (AID 463214); format: functional;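 note: antagonist potency against angiotensin II stimulated AT1 response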
T3 sequence (P30556 whole entry): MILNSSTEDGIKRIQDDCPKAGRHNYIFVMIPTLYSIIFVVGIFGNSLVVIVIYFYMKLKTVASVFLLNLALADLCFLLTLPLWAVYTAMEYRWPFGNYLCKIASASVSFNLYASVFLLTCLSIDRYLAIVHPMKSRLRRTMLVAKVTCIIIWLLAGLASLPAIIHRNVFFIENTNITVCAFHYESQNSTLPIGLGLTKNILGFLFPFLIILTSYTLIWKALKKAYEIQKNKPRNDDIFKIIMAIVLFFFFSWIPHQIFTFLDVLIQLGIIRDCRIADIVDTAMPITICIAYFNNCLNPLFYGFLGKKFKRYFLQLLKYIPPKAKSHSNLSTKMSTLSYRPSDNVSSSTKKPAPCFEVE

[4] = inhibitors of intracellular T. cruzi replication, confirmation, NIH3T3 host cells, beta-gal luminescence (AID 2044); format: functional, cell-based;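 note: intracellular parasites grown in NIH/3T3 mouse fibroblasts as host cells; luminescent beta-galactosidase reporter signal from transgenic T. cruzi replicating inside host cells; inhibitors lower the luminescence signal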
[5] = cytotoxicity toward NIH3T3 fibroblasts, dose response, counter-screen, cell-based, ATP luminescence, mouse fibroblasts (AID 2010); format: functional;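 note: cells exposed to compound for about 90 hours before reading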
[6] = molecular target: Nuclear receptor subfamily 5 group A member 2 (Homo sapiens, UniProt O00482); format: functional, cell-based;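 note: HEK293T cells transfected with LRH-1 and a StAR promoter luciferase reporter; potency for inhibitors that lower LRH-1 driven reporter light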
Steroidogenic factor 1 = Steroidogenic factor 1 (Homo sapiens, UniProt Q13285); assay: Counterscreen for inverse agonists of the liver receptor homolog-1 (LRH-1; NR5A2): Luminescence-based cell-based high throughput dose response assay to identify inverse agonists of the Steroidogenic Factor 1 Nuclear Receptor (SF1; NR5A1).; format: functional
[7] = StAR promoter reporter inhibition counter-screen, dose response, counter-screen for LRH-1 inverse agonist project, cell-based, luminescence, luciferase reporter (AID 651969); format: functional
[8] = test system: Streptococcus sp. 'group A'; assay: growth inhibition of control SK(-) GAS strain, dose response, counter-screen for streptokinase expression inhibitor project, luminescence, kanamycin, BacTiterGlo, confirmation (AID 1900); format: functional, organism-based
Streptokinase A = molecular target: T4, Streptokinase A (Streptococcus pyogenes serotype M1, UniProt P10520); assay: S. pyogenes streptokinase expression inhibitors, potency, dose response, plasminogen activation absorbance, OD405 (AID 1914); format: functional, Streptococcus pyogenes M1 GAS;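 note: secreted streptokinase activity via plasminogen activation per viability signal from cell pellet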
T4 sequence (P10520 whole entry): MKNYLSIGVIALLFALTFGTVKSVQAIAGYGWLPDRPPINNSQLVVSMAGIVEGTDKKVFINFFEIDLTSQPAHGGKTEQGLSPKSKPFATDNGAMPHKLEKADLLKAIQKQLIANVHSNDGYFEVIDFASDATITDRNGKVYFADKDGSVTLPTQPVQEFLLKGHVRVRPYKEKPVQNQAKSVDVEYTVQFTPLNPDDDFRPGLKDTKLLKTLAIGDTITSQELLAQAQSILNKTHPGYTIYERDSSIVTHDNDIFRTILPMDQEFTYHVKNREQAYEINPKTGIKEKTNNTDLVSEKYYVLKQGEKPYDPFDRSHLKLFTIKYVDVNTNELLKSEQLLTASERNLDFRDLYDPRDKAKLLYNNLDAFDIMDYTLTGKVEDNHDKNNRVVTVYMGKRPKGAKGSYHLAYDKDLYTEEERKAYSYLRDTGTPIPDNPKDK

Streptococcus = assay: Group A Streptococcus viability loss, dose response, counter-screen for streptokinase expression inhibitor project, luminescence, BacTiterGlo (AID 1915); format: functional, organism-based;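 note: potency for reduction of bacterial viability or growth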
[9] = molecular target: Heat shock protein HSP 90-alpha (Homo sapiens, UniProt P07900); format: functional, organism-based
[10] = THP-1 cell cytotoxicity, dose response, cytotoxicity control for non-replicating M. tuberculosis project (AID 489025); format: functional
[11] = Vero E6 cell cytotoxicity, dose response, cytotoxicity control for non-replicating M. tuberculosis project, secondary assay (AID 492998); format: functional, VeroE6; settings: Vero C1008
cells = format: functional
[12] = molecular target: T5, Short transient receptor potential channel 4 (Mus musculus, UniProt Q9QUQ5); assay: mouse TRPC4 channel inhibitors, dose response, cell-based, HEK293 TRPC4/mu-opioid, Fluo-4 calcium (AID 434942); format: functional;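 note: potency of inhibitors blocking the TRPC4 calcium response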
T5 sequence (Q9QUQ5 whole entry): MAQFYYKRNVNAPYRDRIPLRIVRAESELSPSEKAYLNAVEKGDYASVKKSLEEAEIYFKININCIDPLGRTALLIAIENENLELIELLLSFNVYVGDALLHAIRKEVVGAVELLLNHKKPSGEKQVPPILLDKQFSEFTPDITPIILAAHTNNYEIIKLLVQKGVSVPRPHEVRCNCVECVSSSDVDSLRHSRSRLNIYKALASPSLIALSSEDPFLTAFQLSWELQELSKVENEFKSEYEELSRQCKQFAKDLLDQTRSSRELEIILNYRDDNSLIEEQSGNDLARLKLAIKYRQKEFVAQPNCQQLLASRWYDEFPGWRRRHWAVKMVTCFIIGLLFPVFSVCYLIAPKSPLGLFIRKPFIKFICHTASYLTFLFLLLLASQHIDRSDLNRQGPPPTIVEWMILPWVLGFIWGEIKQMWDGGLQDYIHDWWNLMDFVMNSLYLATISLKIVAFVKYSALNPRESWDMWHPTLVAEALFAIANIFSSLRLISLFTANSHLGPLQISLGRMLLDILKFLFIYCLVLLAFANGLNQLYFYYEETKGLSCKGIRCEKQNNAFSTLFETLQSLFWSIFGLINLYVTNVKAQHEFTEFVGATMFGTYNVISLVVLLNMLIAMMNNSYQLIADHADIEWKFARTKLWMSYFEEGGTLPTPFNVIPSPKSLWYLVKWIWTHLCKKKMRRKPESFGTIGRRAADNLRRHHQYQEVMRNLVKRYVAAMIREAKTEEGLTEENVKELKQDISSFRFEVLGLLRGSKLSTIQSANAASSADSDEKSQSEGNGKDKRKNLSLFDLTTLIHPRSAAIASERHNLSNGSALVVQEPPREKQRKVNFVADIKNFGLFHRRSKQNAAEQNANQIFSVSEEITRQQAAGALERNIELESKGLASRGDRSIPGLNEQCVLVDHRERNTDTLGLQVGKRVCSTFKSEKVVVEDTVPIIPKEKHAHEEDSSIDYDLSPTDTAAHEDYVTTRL

Protein skinhead-1 = molecular target: T6, Protein skinhead-1 (Caenorhabditis elegans, UniProt P34707); format: functional
T6 sequence (P34707 whole entry): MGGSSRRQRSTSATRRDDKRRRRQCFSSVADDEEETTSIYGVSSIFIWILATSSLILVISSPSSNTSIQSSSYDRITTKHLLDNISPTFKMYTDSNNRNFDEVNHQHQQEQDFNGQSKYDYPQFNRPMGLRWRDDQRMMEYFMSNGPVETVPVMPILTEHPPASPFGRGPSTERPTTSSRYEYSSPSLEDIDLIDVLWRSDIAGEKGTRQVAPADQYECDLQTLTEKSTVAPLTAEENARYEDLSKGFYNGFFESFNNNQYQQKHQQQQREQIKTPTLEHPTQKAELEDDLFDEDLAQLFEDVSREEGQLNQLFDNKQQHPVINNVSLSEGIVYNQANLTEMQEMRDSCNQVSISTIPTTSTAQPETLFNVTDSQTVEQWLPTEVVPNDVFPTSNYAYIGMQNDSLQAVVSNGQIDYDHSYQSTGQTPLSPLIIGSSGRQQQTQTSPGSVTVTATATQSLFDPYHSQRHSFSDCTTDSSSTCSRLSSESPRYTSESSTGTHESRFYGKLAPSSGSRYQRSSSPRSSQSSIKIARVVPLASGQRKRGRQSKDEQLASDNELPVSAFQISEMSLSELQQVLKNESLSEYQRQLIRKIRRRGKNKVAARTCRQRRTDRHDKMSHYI

Cytochrome P450 2C19 = Cytochrome P450 2C19 (Homo sapiens, UniProt P33261); assay: Cytochrome panel assay with activity outcomes. Panel member name: p450-cyp2c19 Compounds with AC50 equal or less than 10 uM are considered active; format: functional; settings: read-out: AC50
Cytochrome P450 2D6 = Cytochrome P450 2D6 (Homo sapiens, UniProt P10635);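 note: CYP2D6 member of a cytochrome P450 panel assay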
[13] = molecular target: Glucose-6-phosphate 1-dehydrogenase (Homo sapiens, UniProt P11413); assay: human G6PD enzyme inhibitors, dose response, selectivity assay for P. falciparum G6PD inhibitor project, biochemical, fluorescence (AID 504792); format: functional
Genome polyprotein = Genome polyprotein (dengue virus type 2, UniProt P29990); assay: Dengue-2 NS5 methyltransferase inhibitors, primary screen, biochemical, confirmation dose response (AID 588689); format: functional
[14] = AlphaScreen signal interference compounds, dose response, artefact control for ARNT-TACC3 interaction inhibitor project, biochemical, luminescence, cherry-pick (AID 651705); format: functional;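 note: AlphaScreen bead proximity signal that flags compounds interfering with the detection technology; potency reflects signal decrease which marks the compound as an assay artifact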

Steroidogenic factor 1, sequence (Q13285 whole entry): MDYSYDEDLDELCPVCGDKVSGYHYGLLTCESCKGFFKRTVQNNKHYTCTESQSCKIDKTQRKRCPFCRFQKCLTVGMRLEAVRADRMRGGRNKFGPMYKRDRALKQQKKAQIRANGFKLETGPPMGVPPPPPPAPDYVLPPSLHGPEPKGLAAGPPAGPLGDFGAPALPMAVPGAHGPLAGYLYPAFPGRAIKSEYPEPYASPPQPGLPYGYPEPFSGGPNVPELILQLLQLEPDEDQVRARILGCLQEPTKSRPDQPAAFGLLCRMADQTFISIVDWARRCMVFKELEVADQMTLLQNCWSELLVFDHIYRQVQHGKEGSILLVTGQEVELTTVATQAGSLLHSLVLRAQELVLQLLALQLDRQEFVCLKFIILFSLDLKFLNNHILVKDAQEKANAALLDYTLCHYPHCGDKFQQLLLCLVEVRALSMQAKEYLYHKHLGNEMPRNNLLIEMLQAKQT
Nuclear receptor subfamily 5 group A member 2, sequence (O00482 whole entry): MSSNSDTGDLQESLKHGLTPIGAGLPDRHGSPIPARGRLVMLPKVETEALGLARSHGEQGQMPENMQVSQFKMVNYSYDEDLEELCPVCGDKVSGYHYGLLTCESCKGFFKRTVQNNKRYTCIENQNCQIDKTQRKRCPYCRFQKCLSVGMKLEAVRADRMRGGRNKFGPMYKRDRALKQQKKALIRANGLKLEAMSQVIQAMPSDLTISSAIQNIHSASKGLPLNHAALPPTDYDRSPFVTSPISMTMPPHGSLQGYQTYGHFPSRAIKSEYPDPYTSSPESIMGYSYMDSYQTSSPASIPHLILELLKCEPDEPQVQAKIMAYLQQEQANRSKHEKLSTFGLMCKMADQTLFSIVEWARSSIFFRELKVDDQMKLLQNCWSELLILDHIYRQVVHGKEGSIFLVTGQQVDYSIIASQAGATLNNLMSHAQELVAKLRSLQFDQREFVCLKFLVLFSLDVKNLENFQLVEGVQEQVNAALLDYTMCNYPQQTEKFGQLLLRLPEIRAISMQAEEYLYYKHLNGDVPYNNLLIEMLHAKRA
Glucose-6-phosphate 1-dehydrogenase, sequence (P11413 whole entry): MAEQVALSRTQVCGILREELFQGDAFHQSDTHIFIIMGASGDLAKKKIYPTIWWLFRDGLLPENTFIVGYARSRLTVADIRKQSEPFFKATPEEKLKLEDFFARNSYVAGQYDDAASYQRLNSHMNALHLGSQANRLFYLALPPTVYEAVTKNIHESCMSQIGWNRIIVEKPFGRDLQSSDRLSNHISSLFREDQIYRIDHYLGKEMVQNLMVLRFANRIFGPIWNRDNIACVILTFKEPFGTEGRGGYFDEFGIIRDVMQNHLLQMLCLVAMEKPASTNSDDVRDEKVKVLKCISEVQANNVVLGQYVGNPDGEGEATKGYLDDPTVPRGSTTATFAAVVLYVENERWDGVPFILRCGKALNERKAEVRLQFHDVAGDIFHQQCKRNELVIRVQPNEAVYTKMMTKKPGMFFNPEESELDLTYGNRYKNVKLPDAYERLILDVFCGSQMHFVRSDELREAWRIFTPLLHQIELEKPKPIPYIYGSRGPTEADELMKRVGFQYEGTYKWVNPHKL
Cytochrome P450 2D6, sequence (P10635 whole entry): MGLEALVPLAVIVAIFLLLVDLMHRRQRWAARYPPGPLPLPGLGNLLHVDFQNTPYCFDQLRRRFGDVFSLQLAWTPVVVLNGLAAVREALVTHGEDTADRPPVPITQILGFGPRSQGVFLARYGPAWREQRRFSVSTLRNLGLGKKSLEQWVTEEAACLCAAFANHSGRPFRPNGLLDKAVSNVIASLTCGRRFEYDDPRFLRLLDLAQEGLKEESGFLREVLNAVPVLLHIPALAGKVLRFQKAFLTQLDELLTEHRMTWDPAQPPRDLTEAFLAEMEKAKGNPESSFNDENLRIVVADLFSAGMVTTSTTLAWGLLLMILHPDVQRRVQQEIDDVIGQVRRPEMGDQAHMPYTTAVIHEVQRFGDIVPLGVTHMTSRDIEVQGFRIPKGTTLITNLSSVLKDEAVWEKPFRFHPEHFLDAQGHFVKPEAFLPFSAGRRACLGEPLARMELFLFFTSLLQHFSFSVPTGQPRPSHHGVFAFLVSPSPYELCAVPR
Beta-galactosidase, sequence (Q8VNN2 whole entry): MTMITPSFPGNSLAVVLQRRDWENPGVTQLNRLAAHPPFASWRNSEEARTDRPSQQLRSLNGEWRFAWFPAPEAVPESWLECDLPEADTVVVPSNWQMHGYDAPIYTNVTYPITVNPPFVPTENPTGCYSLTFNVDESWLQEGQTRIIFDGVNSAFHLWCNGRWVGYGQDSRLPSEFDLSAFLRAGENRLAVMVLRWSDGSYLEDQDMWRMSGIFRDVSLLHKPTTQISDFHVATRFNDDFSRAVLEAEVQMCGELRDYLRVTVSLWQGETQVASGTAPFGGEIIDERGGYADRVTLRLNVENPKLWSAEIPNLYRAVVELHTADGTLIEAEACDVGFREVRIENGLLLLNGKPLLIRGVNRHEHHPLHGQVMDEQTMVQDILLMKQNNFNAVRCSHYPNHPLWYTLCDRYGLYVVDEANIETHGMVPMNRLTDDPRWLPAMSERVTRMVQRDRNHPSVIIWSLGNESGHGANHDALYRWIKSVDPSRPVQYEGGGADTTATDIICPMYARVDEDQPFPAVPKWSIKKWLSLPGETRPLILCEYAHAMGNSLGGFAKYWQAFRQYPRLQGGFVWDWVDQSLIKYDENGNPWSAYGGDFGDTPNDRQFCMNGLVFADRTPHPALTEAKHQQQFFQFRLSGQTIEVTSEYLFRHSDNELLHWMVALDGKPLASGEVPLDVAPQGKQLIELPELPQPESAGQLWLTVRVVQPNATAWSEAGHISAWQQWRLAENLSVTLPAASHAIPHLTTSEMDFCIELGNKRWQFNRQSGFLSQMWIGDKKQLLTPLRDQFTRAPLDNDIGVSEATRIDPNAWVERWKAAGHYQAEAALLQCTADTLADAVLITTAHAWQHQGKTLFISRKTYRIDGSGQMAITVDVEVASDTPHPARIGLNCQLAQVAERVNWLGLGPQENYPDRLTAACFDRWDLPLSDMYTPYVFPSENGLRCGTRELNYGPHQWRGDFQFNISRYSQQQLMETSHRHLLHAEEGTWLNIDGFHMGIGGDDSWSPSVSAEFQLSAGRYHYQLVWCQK
Cytochrome P450 2C19, sequence (P33261 whole entry): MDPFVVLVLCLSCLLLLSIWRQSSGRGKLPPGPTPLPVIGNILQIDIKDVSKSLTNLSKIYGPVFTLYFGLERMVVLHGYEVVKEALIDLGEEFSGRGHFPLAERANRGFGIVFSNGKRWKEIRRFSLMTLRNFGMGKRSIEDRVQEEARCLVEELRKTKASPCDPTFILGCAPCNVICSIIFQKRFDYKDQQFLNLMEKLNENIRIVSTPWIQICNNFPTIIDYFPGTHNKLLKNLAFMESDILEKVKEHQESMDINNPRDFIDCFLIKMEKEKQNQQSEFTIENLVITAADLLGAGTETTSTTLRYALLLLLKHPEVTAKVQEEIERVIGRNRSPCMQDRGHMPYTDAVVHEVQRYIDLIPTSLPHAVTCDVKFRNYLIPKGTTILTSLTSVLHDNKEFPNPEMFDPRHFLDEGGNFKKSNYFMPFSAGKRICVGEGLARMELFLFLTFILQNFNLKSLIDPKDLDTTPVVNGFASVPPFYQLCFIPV
Genome polyprotein, sequence (P29990 2492-3391 limits assumed): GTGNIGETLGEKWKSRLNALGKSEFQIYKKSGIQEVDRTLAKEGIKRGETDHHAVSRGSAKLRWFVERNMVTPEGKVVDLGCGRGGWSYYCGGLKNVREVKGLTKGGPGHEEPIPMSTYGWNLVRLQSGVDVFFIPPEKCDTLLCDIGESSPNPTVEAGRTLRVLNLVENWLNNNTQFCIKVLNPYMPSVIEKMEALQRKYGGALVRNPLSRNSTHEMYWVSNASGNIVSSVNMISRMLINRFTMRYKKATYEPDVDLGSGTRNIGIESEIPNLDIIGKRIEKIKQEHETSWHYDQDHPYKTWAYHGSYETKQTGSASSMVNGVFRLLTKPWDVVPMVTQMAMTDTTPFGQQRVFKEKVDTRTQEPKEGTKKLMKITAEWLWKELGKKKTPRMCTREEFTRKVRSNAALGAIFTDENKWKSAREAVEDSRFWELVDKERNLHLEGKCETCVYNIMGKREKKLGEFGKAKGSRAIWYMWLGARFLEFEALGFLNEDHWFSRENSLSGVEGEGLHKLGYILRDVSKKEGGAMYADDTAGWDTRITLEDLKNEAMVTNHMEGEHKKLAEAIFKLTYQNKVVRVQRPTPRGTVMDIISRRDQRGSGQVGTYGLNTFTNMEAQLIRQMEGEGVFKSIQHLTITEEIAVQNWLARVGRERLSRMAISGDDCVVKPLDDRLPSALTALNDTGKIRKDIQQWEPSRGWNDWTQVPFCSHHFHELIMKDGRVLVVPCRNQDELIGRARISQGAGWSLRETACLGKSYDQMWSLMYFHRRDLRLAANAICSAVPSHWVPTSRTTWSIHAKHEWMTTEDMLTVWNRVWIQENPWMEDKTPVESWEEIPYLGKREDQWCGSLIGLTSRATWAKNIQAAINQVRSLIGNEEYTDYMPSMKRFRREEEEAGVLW

## Cc1c(C)n(CCN(C)C)c2ccc(C(=O)OCCN(C)C)cc12
[1]
  AC50: 8.41 µM (active)
[2]
  AC50: 1.31 µM (active)

## CC(C)c1nc(C#N)c(NN)o1
Beta-galactosidase
  EC50: > 40 µM (inactive)
[3]
  IC50: 25.3 µM (not active)

## COc1ccc(NS(=O)(=O)c2ccc(OCC(=O)N3CCN(C)CC3)cc2)cc1Cl
[4]
  EC50: 0.524 µM (active)
[5]
  EC50: > 30 µM (not active)
[6]
  IC50: 9.48 µM (active)
Steroidogenic factor 1
  IC50: 5.92 µM (active)
[7]
  IC50: 35.9 µM (inactive)

## O=C(/C=C/c1cccc(C(F)(F)F)c1)Nc1cccc(C(F)(F)F)c1
[8]
  EC50: 4.38 µM (active)
Streptokinase A
  EC50: > 50 µM (not active)
Streptococcus
  EC50: 4.93 µM (active)
[9]
  AC50: 4.19 µM (active)

## C=CCc1ccc(OCC(O)CN2CCN(Cc3ccc(Cl)cc3)CC2)c(OC)c1 (configuration not stated)
[10]
  CC50: > 40 µM (active)
[11]
  CC50: > 20 µM (active)
cells
  IC50: 23.3 µM (active)

## O=C(c1ccco1)N1CCN(C/C=C/c2ccccc2)CC1
[12]
  EC50: 0.596 µM (active)
Protein skinhead-1
  IC50: > 100 µM (inactive)

## Cc1cc(C)c2c(N=NN(C)C)[nH]nc2n1
Cytochrome P450 2C19
  AC50: 39.8 µM (inconclusive)
[9]
  AC50: 3.96 µM (active)
Cytochrome P450 2D6
  AC50: 14.1 µM (inconclusive)

## COc1ccc(NC(=O)CN2C(=O)NC3(CCCC3)C2=O)cc1
[6]
  IC50: 35.9 µM (inactive)
Steroidogenic factor 1
  IC50: 35.9 µM (inactive)
[7]
  IC50: 35.9 µM (inactive)

## CCN(CC)C1CC(=O)N(c2ccc(Br)cc2)C1=O (configuration not stated)
[9]
  AC50: 4.04 µM (active)

## Oc1cc(CNCc2ccccc2)c(O)cc1CNCc1ccccc1
[13]
  IC50: > 80 µM (inactive)
Genome polyprotein
  IC50: 37.4 µM (active)

## C/C=C/c1ccc([C@@H]2[C@H](CO)N(Cc3ccccn3)[C@H]2CNC(C)=O)cc1
[14]
  AC50: 83.2 µM (active)

## COc1cc(/C=N/NC(N)=S)ccc1OCC(=O)Nc1ccc(C)cc1
[6]
  IC50: 35.9 µM (inactive)
Steroidogenic factor 1
  IC50: 8.04 µM (active)
[7]
  IC50: 35.9 µM (inactive)

## COc1cccc(/C=N/NC(=O)c2c(C)nc3ccc(Br)cn23)c1
[13]
  IC50: 36 µM (inactive)
